Data as given in ChEMBL document CHEMBL3871302, “Synthesis of novel steroidal agonists, partial agonists, and antagonists for the glucocorticoid receptor” (Bioorg Med Chem Lett, 2017).
Calls of active or inactive are those of the source. The calls are words filed in the database; no cut-off is given here.

Experiments:
Assay type in all cases: cell-based
[1] = target: T1, Glucocorticoid receptor (Homo sapiens) (UniProt P04150); assay: (§1) Agonist activity at GR in human HepG2 cells assessed as protein mediated-transcriptional activity by MMTV-promoter driven luciferase reporter gene assay
T1 sequence (whole entry): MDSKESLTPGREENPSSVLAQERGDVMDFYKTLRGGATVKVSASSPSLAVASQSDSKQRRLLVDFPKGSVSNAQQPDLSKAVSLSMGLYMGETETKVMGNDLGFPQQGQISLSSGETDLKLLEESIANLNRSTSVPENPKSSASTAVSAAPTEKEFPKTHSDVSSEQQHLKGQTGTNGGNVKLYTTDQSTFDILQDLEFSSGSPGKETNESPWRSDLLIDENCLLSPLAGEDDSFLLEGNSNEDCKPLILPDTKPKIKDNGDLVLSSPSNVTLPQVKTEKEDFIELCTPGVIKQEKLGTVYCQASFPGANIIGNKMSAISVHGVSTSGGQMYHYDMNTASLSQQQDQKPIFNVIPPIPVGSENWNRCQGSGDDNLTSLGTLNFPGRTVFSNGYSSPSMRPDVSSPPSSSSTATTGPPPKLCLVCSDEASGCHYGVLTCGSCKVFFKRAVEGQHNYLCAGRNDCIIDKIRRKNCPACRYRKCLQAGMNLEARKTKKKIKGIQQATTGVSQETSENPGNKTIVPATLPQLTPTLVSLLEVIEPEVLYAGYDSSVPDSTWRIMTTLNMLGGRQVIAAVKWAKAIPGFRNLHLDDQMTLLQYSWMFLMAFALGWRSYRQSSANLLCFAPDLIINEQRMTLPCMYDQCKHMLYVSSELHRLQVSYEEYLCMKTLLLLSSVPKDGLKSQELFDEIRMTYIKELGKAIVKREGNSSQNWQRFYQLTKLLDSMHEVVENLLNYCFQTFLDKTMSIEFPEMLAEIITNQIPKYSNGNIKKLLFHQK

Glucocorticoid receptor [2] = target: T2, Glucocorticoid receptor (Homo sapiens, UniProt P04150); assay: as §1
T2 sequence (P04150 whole entry): T1 sequence (whole entry)

[3] = target: T1, Glucocorticoid receptor (Homo sapiens); assay: (§2) Antagonist activity at GR in human HepG2 cells assessed as inhibition of protein mediated-transcriptional activity by MMTV-promoter driven luciferase reporter gene assay
Glucocorticoid receptor [4] = target: T2, Glucocorticoid receptor; assay: as §2
[5] = target: T3, Glucocorticoid receptor (Mus musculus) (UniProt P06537); assay: Antagonist activity at GR in mouse C2C12 cells assessed as increase in LPS-induced IL6 production by alphaLISA assay relative to control; design: scale not given: the % may be the effect or the level left
T3 sequence (whole entry): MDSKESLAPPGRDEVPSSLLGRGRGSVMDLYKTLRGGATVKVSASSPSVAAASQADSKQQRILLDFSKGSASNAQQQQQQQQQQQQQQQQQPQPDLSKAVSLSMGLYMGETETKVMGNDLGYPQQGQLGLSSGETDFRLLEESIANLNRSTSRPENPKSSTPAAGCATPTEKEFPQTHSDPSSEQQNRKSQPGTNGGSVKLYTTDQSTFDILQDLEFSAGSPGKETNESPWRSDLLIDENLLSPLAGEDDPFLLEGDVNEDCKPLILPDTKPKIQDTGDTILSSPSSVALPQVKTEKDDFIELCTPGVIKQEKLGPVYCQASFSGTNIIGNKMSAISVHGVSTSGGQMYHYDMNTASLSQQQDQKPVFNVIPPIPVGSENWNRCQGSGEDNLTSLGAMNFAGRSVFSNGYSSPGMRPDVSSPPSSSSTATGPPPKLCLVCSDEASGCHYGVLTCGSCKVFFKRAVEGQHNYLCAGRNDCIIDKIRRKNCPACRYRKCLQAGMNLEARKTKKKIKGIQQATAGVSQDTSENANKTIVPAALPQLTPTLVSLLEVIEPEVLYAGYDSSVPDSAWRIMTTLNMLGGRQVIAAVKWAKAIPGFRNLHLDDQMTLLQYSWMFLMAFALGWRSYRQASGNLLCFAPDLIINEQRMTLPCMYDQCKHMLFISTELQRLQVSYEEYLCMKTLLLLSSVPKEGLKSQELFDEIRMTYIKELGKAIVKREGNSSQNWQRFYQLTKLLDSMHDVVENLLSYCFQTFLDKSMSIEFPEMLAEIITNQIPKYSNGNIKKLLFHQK

[6] = target: T3, Glucocorticoid receptor (Mus musculus); assay: Agonist activity at GR in mouse C2C12 cells assessed as suppression of LPS-induced IL6 production by alphaLISA assay
[7] = target: T1, Glucocorticoid receptor (Homo sapiens); assay: Antagonist activity at GR in human HepG2 cells assessed as inhibition of protein mediated-transcriptional activity at 10 uM by MMTV-promoter driven luciferase reporter gene assay

Compound | Efficacy [1] | EC50 (Glucocorticoid receptor [2]) | Efficacy [3] | IC50 (Glucocorticoid receptor [4]) | Activity [5] | Activity [6] | Efficacy [7]
CC#C[C@]1(O)CC[C@H]2[C@@H]3CCc4cc(C(=O)Nc5ccncc5C)ccc4[C@H]3[C@@H](O)C[C@@]21C | 12% | 149 nM | 23% | 1360 nM | Active | – | –
Cc1ncccc1NC(=O)c1ccc2c(c1)CC[C@@H]1[C@@H]2[C@@H](O)C[C@@]2(C)[C@H]1CC[C@@]2(O)C#CC(C)C | 28% | > 5000 nM | 39% | 37 nM | Active | – | –
C#C[C@]1(O)CC[C@H]2[C@@H]3CCc4cc(C(=O)Nc5cccnc5C)ccc4[C@H]3[C@@H](O)C[C@@]21C | 3.2% | – | 96% | – | Active | – | –
CC#C[C@]1(O)CC[C@H]2[C@@H]3CCc4cc(C(=O)Nc5cccnc5C)ccc4[C@H]3[C@@H](OCc3ccccc3)C[C@@]21C | -0.4% | – | -0.1% | 0.4 nM | – | Active | –
CC#C[C@]1(O)CC[C@H]2[C@@H]3CCc4cc(C(=O)Nc5ncccc5C)ccc4[C@H]3[C@@H](O)C[C@@]21C | 92% | 280 nM | 239% | – | – | Active | –
CC#C[C@]1(O)CC[C@H]2[C@@H]3CCc4cc(C(=O)Nc5cccnc5C)ccc4[C@H]3[C@@H](OC)C[C@@]21C | 71% | 0.04 nM | 84% | – | – | Active | –
Cc1ncccc1NC(=O)c1ccc2c(c1)CC[C@@H]1[C@@H]2[C@@H](O)C[C@@]2(C)[C@H]1CC[C@]2(C)O | -0.5% | – | 112% | – | Active | – | –
CC#C[C@]1(O)CC[C@H]2[C@@H]3CCc4cc(C(=O)Nc5cccnc5C)ccc4[C@H]3[C@@H](OCC)C[C@@]21C | 67% | 0.05 nM | 73% | – | – | Active | –
CC#C[C@]1(O)CC[C@H]2[C@@H]3CCc4cc(C(=O)Nc5cnccc5C)ccc4[C@H]3[C@@H](O)C[C@@]21C | 73% | 240 nM | 147% | – | – | Active | –
CC#C[C@]1(O)CC[C@H]2[C@@H]3CCc4cc(C(=O)Nc5cccnc5C)ccc4[C@H]3[C@@H](OCc3cccc(Cl)c3)C[C@@]21C | 0.2% | – | -0.3% | 0.9 nM | – | Active | –
C=CCOC(=O)O[C@H]1C[C@@]2(C)[C@@H](CC[C@@]2(O)C#CC)[C@@H]2CCc3cc(C(=O)Nc4cccnc4C)ccc3[C@H]21 | 2.4% | – | -0.7% | 84 nM | – | Active | –
Cc1ncccc1NC(=O)c1ccc2c(c1)CC[C@@H]1[C@@H]2[C@@H](O)C[C@]2(C)[C@@H](O)CC[C@@H]12 | 0.4% | – | 85% | – | Active | – | –
CC#C[C@]1(O)CC[C@H]2[C@@H]3CCc4cc(C(=O)Nc5cccnc5C)ccc4[C@H]3[C@H](O)C[C@@]21C | 19.4% | – | 55% | – | – | Active | –
CC#C[C@]1(O)CC[C@H]2[C@@H]3CCc4cc(C(=O)Nc5cccnc5C)ccc4[C@H]3[C@@H](OCc3ccc(Cl)cc3)C[C@@]21C | -0.2% | – | 0.06% | 0.07 nM | – | Active | –
CCCCC#C[C@]1(O)CC[C@H]2[C@@H]3CCc4cc(C(=O)Nc5cccnc5C)ccc4[C@H]3[C@@H](O)C[C@@]21C | 56% | 100 nM | 74% | 2350 nM | Active | – | –
CC#C[C@]1(O)CC[C@H]2[C@@H]3CCc4cc(C(=O)Nc5cccnc5)ccc4[C@H]3[C@@H](O)C[C@@]21C | 0.2% | – | 10% | 455 nM | 50% | – | –
Cc1ncccc1NC(=O)c1ccc2c(c1)CC[C@@H]1[C@@H]2[C@@H](O)C[C@@]2(C)[C@H]1CC[C@@]2(O)C#C[Si](C)(C)C | 110% | 47 nM | 90% | – | Active | – | –
CC#C[C@]1(O)CC[C@H]2[C@@H]3CCc4cc(C(=O)Nc5cccnc5C)ccc4[C@H]3[C@@H](OCc3ccccc3Cl)C[C@@]21C | 0.6% | – | 1.7% | 1.4 nM | – | Active | –
CC#C[C@]1(O)CC[C@H]2[C@@H]3CCc4cc(C(=O)Nc5cccnc5C)ccc4[C@H]3[C@@H](O)C[C@@]21C | 35% | 265 nM | 46% | 626 nM | – | Active | –
CC#C[C@]1(O)CC[C@H]2[C@@H]3CCc4cc(C(=O)Nc5cncc(C)c5)ccc4[C@H]3[C@@H](O)C[C@@]21C | -0.1% | – | – | – | Active | – | 22%
Cc1ncccc1NC(=O)c1ccc2c(c1)CC[C@@H]1[C@@H]2[C@@H](O)C[C@@]2(C)[C@H]1CC[C@@]2(O)C#Cc1ccccc1 | 2.1% | – | 1.4% | 558 nM | Active | – | –
C=CCO[C@H]1C[C@@]2(C)[C@@H](CC[C@@]2(O)C#CC)[C@@H]2CCc3cc(C(=O)Nc4cccnc4C)ccc3[C@H]21 | 56% | 0.11 nM | 57% | 0.03 nM | – | Active | –
CC#C[C@]1(O)CC[C@H]2[C@@H]3CCc4cc(C(=O)Nc5cccnc5C)ccc4C3=CC[C@@]21C | 51.6% | 1860 nM | 30.6% | – | – | Active | –
